In PubChem BioAssay AID2060902 (Molecular Pharmacology Branch, DTP, NCI, 2025):

System: 485368-065-R3-J5-PDC spheroids with HUVEC/MSC, viability
Experiment: Anticancer human tumor 485368-065-R3-J5-PDC patient-derived pancreatic carcinoma cell line growth inhibition [RAS]
Conditions: for IC50: curve of first compound; for viability, T/C: stronger effect = lower value
In short: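 Tumour cells grown as complex spheroids with HUVEC endothelial cells and mesenchymal stem cells, treated with RAS pathway inhibitor combinations. Each agent spans half-log steps from near clinical Cmax, or 10 microM where Cmax is unknown.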

[1] = second compound 0.000949 µM, first compound 0.0316 µM
[2] = second compound 0.000949 µM, first compound 0.1 µM
[3] = second compound 0.000949 µM, first compound 0.316 µM
[4] = second compound 0.000949 µM, first compound 1 µM
[5] = second compound 0.003 µM, first compound 0.0316 µM
[6] = second compound 0.003 µM, first compound 0.1 µM
[7] = second compound 0.003 µM, first compound 0.316 µM
[8] = second compound 0.003 µM, first compound 1 µM
[9] = second compound 0.00949 µM, first compound 0.0316 µM
[10] = second compound 0.00949 µM, first compound 0.1 µM
[11] = second compound 0.00949 µM, first compound 0.316 µM
[12] = second compound 0.00949 µM, first compound 1 µM
[13] = second compound 0.03 µM, first compound 0.0316 µM
[14] = second compound 0.03 µM, first compound 0.1 µM
[15] = second compound 0.03 µM, first compound 0.316 µM
[16] = second compound 0.03 µM, first compound 1 µM
[17] = second compound 0.0949 µM, first compound 0.0316 µM
[18] = second compound 0.0949 µM, first compound 0.1 µM
[19] = second compound 0.0949 µM, first compound 0.316 µM
[20] = second compound 0.0949 µM, first compound 1 µM
[21] = second compound 0.3 µM, first compound 0.0316 µM
[22] = second compound 0.3 µM, first compound 0.1 µM
[23] = second compound 0.3 µM, first compound 0.316 µM
[24] = second compound 0.3 µM, first compound 1 µM
[25] = second compound 0.000949 µM, first compound 3.16 µM
[26] = second compound 0.000949 µM, first compound 10 µM
[27] = second compound 0.003 µM, first compound 3.16 µM
[28] = second compound 0.003 µM, first compound 10 µM
[29] = second compound 0.00949 µM, first compound 3.16 µM
[30] = second compound 0.00949 µM, first compound 10 µM
[31] = second compound 0.03 µM, first compound 3.16 µM
[32] = second compound 0.03 µM, first compound 10 µM
[33] = second compound 0.0949 µM, first compound 3.16 µM
[34] = second compound 0.0949 µM, first compound 10 µM
[35] = second compound 0.3 µM, first compound 3.16 µM
[36] = second compound 0.3 µM, first compound 10 µM
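Note: spheroids exposed to agents for seven days before readout.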

How did the IC50 (second compound 0.000949 µM) turn out when CCN1CCN(Cc2ccc(Nc3ncc(F)c(-c4cc(F)c5nc(C)n(C(C)C)c5c4)n3)nc2)CC1 + CCn1c(-c2cc(N3CCN(C)CC3)cnc2C(C)OC)c2c3cc(ccc31)-c1csc(n1)CC(NC(=O)C1CC1C)C(=O)N1CCCC(N1)C(=O)OCC(C)(C)C2 was run?
The IC50 was < 3.16 nM.

What about the IC50 (second compound 0.003 µM) of the same compound?
The IC50 was < 3.16 nM.

And the IC50 (second compound 0.00949 µM)?
The IC50 was < 3.16 nM.

What about the IC50 (second compound 0.03 µM) of the same compound?
Its IC50 is < 3.16 nM.

What about the IC50 (second compound 0.0949 µM) of the same compound?
The IC50 was < 3.16 nM.

What about the IC50 (second compound 0.3 µM) of the same compound?
Its IC50 is < 3.16 nM.

What about the viability, T/C (second compound 0.000949 µM, first compound 0.00316 µM) of the same compound?
The viability, T/C was 31.4%.

What about the viability, T/C (second compound 0.000949 µM, first compound 0.01 µM) of the same compound?
The viability, T/C was 27.4%.

What about the viability, T/C [1] of the same compound?
The viability, T/C was 31.6%.

What about the viability, T/C [2] of the same compound?
The viability, T/C was 22.1%.

What about the viability, T/C [3] of the same compound?
The viability, T/C was 28.7%.

What about the viability, T/C [4] of the same compound?
Its viability, T/C is 27.1%.

And the viability, T/C (second compound 0.003 µM, first compound 0.00316 µM)?
The viability, T/C was 22.1%.

What about the viability, T/C (second compound 0.003 µM, first compound 0.01 µM) of the same compound?
The viability, T/C was 21.1%.

What about the viability, T/C [5] of the same compound?
The viability, T/C was 16.8%.

And the viability, T/C [6]?
The viability, T/C was 15.4%.

What about the viability, T/C [7] of the same compound?
Its viability, T/C is 18.4%.

And the viability, T/C [8]?
The viability, T/C was 22.4%.

What about the viability, T/C (second compound 0.00949 µM, first compound 0.00316 µM) of the same compound?
The viability, T/C was 16.1%.

And the viability, T/C (second compound 0.00949 µM, first compound 0.01 µM)?
Its viability, T/C is 16.4%.

What about the viability, T/C [9] of the same compound?
The viability, T/C was 11%.

What about the viability, T/C [10] of the same compound?
The viability, T/C was 15.1%.

And the viability, T/C [11]?
Its viability, T/C is 14.2%.

What about the viability, T/C [12] of the same compound?
Its viability, T/C is 18.3%.

And the viability, T/C (second compound 0.03 µM, first compound 0.00316 µM)?
The viability, T/C was 11.1%.

And the viability, T/C (second compound 0.03 µM, first compound 0.01 µM)?
The viability, T/C was 11.8%.

What about the viability, T/C [13] of the same compound?
The viability, T/C was 9.68%.

And the viability, T/C [14]?
The viability, T/C was 13.2%.

And the viability, T/C [15]?
Its viability, T/C is 13.1%.

What about the viability, T/C [16] of the same compound?
Its viability, T/C is 16.5%.

And the viability, T/C (second compound 0.0949 µM, first compound 0.00316 µM)?
Its viability, T/C is 8.73%.

What about the viability, T/C (second compound 0.0949 µM, first compound 0.01 µM) of the same compound?
Its viability, T/C is 10.7%.

What about the viability, T/C [17] of the same compound?
Its viability, T/C is 9.07%.

And the viability, T/C [18]?
The viability, T/C was 8.91%.

And the viability, T/C [19]?
Its viability, T/C is 12.2%.

And the viability, T/C [20]?
The viability, T/C was 15.6%.

And the viability, T/C (second compound 0.3 µM, first compound 0.00316 µM)?
The viability, T/C was 8.74%.

And the viability, T/C (second compound 0.3 µM, first compound 0.01 µM)?
Its viability, T/C is 8.83%.

And the viability, T/C [21]?
Its viability, T/C is 7.48%.

What about the viability, T/C [22] of the same compound?
The viability, T/C was 9.84%.

And the viability, T/C [23]?
The viability, T/C was 10.8%.

What about the viability, T/C [24] of the same compound?
The viability, T/C was 15.2%.

What does the source list for Cc1nc(N2CCC3(CC2)COC(C)C3N)c(CO)nc1Sc1ccnc(N)c1Cl (stereo unspecified) + CCn1c(-c2cc(N3CCN(C)CC3)cnc2C(C)OC)c2c3cc(ccc31)-c1csc(n1)CC(NC(=O)C1CC1C)C(=O)N1CCCC(N1)C(=O)OCC(C)(C)C2?
IC50 (second compound 0.000949 µM): < 31.6 nM; IC50 (second compound 0.003 µM): < 31.6 nM; IC50 (second compound 0.00949 µM): < 31.6 nM; IC50 (second compound 0.03 µM): < 31.6 nM; IC50 (second compound 0.0949 µM): < 31.6 nM; IC50 (second compound 0.3 µM): < 31.6 nM; viability, T/C [1]: 26.1%; viability, T/C [2]: 18.6%; viability, T/C [3]: 17.5%; viability, T/C [4]: 15%; viability, T/C [25]: 11.8%; viability, T/C [26]: 8.82%; viability, T/C [5]: 18.4%; viability, T/C [6]: 15.9%; viability, T/C [7]: 12.8%; viability, T/C [8]: 10.7%; viability, T/C [27]: 7.85%; viability, T/C [28]: 4.73%; viability, T/C [9]: 13.4%; viability, T/C [10]: 12%; viability, T/C [11]: 9.63%; viability, T/C [12]: 9.5%; viability, T/C [29]: 4.66%; viability, T/C [30]: 2.44%; viability, T/C [13]: 10.6%; viability, T/C [14]: 10.2%; viability, T/C [15]: 8.7%; viability, T/C [16]: 5.25%; viability, T/C [31]: 2.49%; viability, T/C [32]: 1.01%; viability, T/C [17]: 8.37%; viability, T/C [18]: 8.31%; viability, T/C [19]: 6.58%; viability, T/C [20]: 3.11%; viability, T/C [33]: 1.36%; viability, T/C [34]: 0.74%; viability, T/C [21]: 7.17%; viability, T/C [22]: 6.81%; viability, T/C [23]: 5.18%; viability, T/C [24]: 2.89%; viability, T/C [35]: 1.79%; viability, T/C [36]: 0.68%

How did the IC50 (second compound 0.000949 µM) turn out when NC1c2ccccc2OC12CCN(c1cnc3c(N4CCCc5ncccc54)n[nH]c3n1)CC2 (stereo unspecified) + CCn1c(-c2cc(N3CCN(C)CC3)cnc2C(C)OC)c2c3cc(ccc31)-c1csc(n1)CC(NC(=O)C1CC1C)C(=O)N1CCCC(N1)C(=O)OCC(C)(C)C2 was run?
Its IC50 is < 31.6 nM.

What about the IC50 (second compound 0.003 µM) of the same compound?
Its IC50 is < 31.6 nM.

And the IC50 (second compound 0.00949 µM)?
The IC50 was < 31.6 nM.

And the IC50 (second compound 0.03 µM)?
The IC50 was < 31.6 nM.

What about the IC50 (second compound 0.0949 µM) of the same compound?
Its IC50 is < 31.6 nM.

What about the IC50 (second compound 0.3 µM) of the same compound?
Its IC50 is < 31.6 nM.

And the viability, T/C [1]?
Its viability, T/C is 20.7%.

And the viability, T/C [2]?
The viability, T/C was 16%.

What about the viability, T/C [3] of the same compound?
The viability, T/C was 14.1%.

And the viability, T/C [4]?
The viability, T/C was 10.6%.

And the viability, T/C [25]?
Its viability, T/C is 5.97%.

What about the viability, T/C [26] of the same compound?
The viability, T/C was 4.14%.

What about the viability, T/C [5] of the same compound?
Its viability, T/C is 15.1%.

What about the viability, T/C [6] of the same compound?
Its viability, T/C is 12.5%.

What about the viability, T/C [7] of the same compound?
The viability, T/C was 9.36%.

What about the viability, T/C [8] of the same compound?
Its viability, T/C is 4.72%.

And the viability, T/C [27]?
Its viability, T/C is 3.77%.

And the viability, T/C [28]?
The viability, T/C was 1.44%.

What about the viability, T/C [9] of the same compound?
Its viability, T/C is 12.7%.

What about the viability, T/C [10] of the same compound?
Its viability, T/C is 8.1%.

And the viability, T/C [11]?
Its viability, T/C is 5.43%.

What about the viability, T/C [12] of the same compound?
Its viability, T/C is 2.3%.

And the viability, T/C [29]?
The viability, T/C was 2.03%.

And the viability, T/C [30]?
The viability, T/C was 0.85%.

What about the viability, T/C [13] of the same compound?
Its viability, T/C is 7.1%.

And the viability, T/C [14]?
The viability, T/C was 6.69%.

What about the viability, T/C [15] of the same compound?
Its viability, T/C is 3.1%.

And the viability, T/C [16]?
Its viability, T/C is 1.62%.

What about the viability, T/C [31] of the same compound?
Its viability, T/C is 0.67%.

What about the viability, T/C [32] of the same compound?
Its viability, T/C is 0.58%.

What about the viability, T/C [17] of the same compound?
Its viability, T/C is 6.28%.

And the viability, T/C [18]?
Its viability, T/C is 4.31%.

What about the viability, T/C [19] of the same compound?
The viability, T/C was 2.01%.

What about the viability, T/C [20] of the same compound?
The viability, T/C was 0.85%.

And the viability, T/C [33]?
The viability, T/C was 0.88%.

What about the viability, T/C [34] of the same compound?
The viability, T/C was 0.54%.

What about the viability, T/C [21] of the same compound?
The viability, T/C was 6.78%.

What about the viability, T/C [22] of the same compound?
The viability, T/C was 3.56%.

What about the viability, T/C [23] of the same compound?
Its viability, T/C is 2.12%.

And the viability, T/C [24]?
The viability, T/C was 1%.

What about the viability, T/C [35] of the same compound?
The viability, T/C was 0.91%.

And the viability, T/C [36]?
Its viability, T/C is 0.53%.
